These results are taken from patent publication US20250388589A1, “TRICYCLIC HETEROCYCLIC DERIVATIVES, COMPOSITIONS AND USES THEREOF” (Danatlas Pharmaceuticals Co., Ltd., priority 2022, published 2025).

In assay [1] the target is hPARG (C-terminal His6-tag) (Homo sapiens (Human), UniProt Q86W56). Nature of the assay: PARG Enzymatic Activity Assay (HTRF). The class given is biochemical. The conditions noted are these: hPARG 65 pM final, biotinylated-NAD ribosylated PARP1 8 nM final. How it is done:
PARG Enzymatic Activity Assay HTRF assay was used to measure the ability of compounds to inhibit the activity of PARG in vitro. C-terminal His6-tag PARG expressed in E. coli was purified and stored at −80° C. in aliquots. Assay measurements were performed with 1×buffer comprising 50 mM Tris pH 7.4, 0.1 mg/mL BSA, 3 mM EDTA, 0.4 mM EGTA, 1 mM DTT, 50 mM KCl and 0.01% Tween 20.
Compounds dissolved in DMSO were plated into a 384-well assay plate (PerkinElmer, Catalog #: 6008280) in duplicate using a dispenser (Labcyte, Echo 665), and tested on a 10-point 4-fold serial dilution. Add 5 L Enzyme mix [hPARG (C-terminal His6-tag, 4.2 μM), 65 pM final] to the test wells. The plates were covered and left to incubate for 60 minutes at RT before the addition of 5 L substrate mix [biotinylated-NAD ribosylated PARP1 (6.1 μM), 8 nM final] to initiate reaction. After incubating 10 minutes at RT, add 2.5 L Streptavidin-Eu cryptate (Cisbio, Catalog #: 610SAKLA) and 2.5 L Mab anti 6HIS-XL665 (Cisbio, Catalog #: 61HISXLA) to the plate, and incubate for 60 minutes at RT. Read on a multimode plate reader (PerkinElmer, Envision 2015) in time-resolved fluorescence (TRF) mode, with excitation at 337 nm and emission at both 620 nm and 665 nm. Average HTRF signal of high control (Wells with 1% DMSO) was calculated and as Vehicle Control (VC). Average HTRF signal of low control (no Enzyme) was calculated and as Positive control (PC).
(§1) IC50 values were determined by fitting the data to the standard 4 parameters with Hill Slope using GraphPad Prism software.
A general note: In TR-FRET formats the signal depends on donor and acceptor labels being close together.

Another assay concerns Kuramochi cell line. Nature of the assay: Cell Viability Assay (Cell Titer-Glo, 7 days). Type of assay: cell-based. Particulars: 168 h, Kuramochi cells, 7 days incubation, read-out: PARG Cell viability (IC50). As to the method:
Cell viability studies were conducted in Kuramochi cell line. Cells were maintained in RPMI (Hyclone, Catalog #: SH3080901B) supplemented with 10% v/v FBS (AusGeneX, Catalog #: FBS500-S), 1% v/v Penicillin Streptomycin (Gibco, Catalog #: 15140122). Cells were seeded in 96-well plates (PerkinElmer, Catalog #: 6005680) at a density of 400 cells/well. Compounds dissolved in DMSO were plated in duplicate using a multichannel pipette, and tested on a 9-point 3-fold serial dilution. Cells were incubated for 7 days in a 37° C. active humidified incubator at 5% CO2. Cell viability was measured using the Cell Titer-Glo reagent (Promega, Catalog #: G7573) as manufacturer's instructions. Luminescence signal was measured with a multimode plate reader (Perkin Elmer, Envision 2105 or BMG, ClarioStar Plus). Average values of DMSO treated wells in a plate was calculated and as high control (HC). Average values of only medium in a plate was calculated and as low control (LC)
as §1

SMILES strings stand for the structures.

Sequence of hPARG (C-terminal His6-tag) (Q86W56 whole entry): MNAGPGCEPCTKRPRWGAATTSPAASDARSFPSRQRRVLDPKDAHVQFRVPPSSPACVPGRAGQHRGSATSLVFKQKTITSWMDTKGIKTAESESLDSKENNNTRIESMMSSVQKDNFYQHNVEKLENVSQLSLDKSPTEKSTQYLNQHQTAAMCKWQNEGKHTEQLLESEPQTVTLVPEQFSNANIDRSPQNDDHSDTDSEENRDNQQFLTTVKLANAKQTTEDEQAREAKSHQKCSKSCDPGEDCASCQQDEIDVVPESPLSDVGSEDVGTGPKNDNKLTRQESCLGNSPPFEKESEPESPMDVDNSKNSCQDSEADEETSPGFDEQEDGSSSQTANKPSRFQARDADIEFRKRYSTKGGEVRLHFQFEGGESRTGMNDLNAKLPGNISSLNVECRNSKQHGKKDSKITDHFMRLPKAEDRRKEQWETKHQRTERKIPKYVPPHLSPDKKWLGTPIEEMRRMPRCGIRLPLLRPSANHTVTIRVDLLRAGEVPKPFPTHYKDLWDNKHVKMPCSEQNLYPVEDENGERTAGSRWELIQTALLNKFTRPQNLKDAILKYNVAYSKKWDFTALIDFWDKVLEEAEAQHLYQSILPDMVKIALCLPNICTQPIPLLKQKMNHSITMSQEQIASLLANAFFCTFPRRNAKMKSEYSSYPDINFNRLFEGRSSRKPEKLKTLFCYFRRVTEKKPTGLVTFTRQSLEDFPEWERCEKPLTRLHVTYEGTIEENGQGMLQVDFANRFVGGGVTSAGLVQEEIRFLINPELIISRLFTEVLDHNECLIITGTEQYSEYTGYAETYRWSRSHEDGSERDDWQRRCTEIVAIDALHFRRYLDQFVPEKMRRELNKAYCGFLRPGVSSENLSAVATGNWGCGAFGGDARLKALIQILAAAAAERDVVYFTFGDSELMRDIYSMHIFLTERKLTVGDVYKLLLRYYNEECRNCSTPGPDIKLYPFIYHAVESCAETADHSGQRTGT

As for `N#CC1(NS(=O)(=O)c2ccc3c4c(N5CCN(c6ncccn6)CC5)ncnc4n(-c4nnc(C(F)F)s4)c3c2)CC1` [Example 18, N-(1-Cyanocyclopropyl)-9-(5-(difluoromethyl)-1,3,4-thiadiazol-2-yl)-4-(4-(pyrimidin-2-yl)piperazin-1-yl)-9H-pyrimido[4,5-b]indole-7-sulfonamide], the IC50 (in assay [1]; in the assay with Kuramochi cell line) was 100 to 1000 nM each time.
In the case of `N#CC1(NS(=O)(=O)c2ccc3c4c(N5CCN(c6cccnn6)CC5)ncnc4n(-c4nnc(C(F)F)s4)c3c2)CC1` [Example 19, N-(1-Cyanocyclopropyl)-9-(5-(difluoromethyl)-1,3,4-thiadiazol-2-yl)-4-(4-(pyridazin-3-yl)piperazin-1-yl)-9H-pyrimido[4,5-b]indole-7-sulfonamide], the IC50 in assay [1] is less than 100 nM; in the assay on Kuramochi cell line, 100 to 1000 nM.
As to `N#CC1(NS(=O)(=O)c2ccc3c4c(N5CCC6(CC5)COC6)ncnc4n(-c4nnc(C(F)F)s4)c3c2)CC1` [Example 20, N-(1-Cyanocyclopropyl)-9-(5-(difluoromethyl)-1,3,4-thiadiazol-2-yl)-4-(2-oxa-7-azaspiro[3.5]nonan-7-yl)-9H-pyrimido[4,5-b]indole-7-sulfonamide], the concentration for half-maximal inhibition (IC50) (in assay [1]; in the assay with Kuramochi cell line) was less than 100 nM in each case.
On to `C[C@@H]1CN(c2ncnc3c2c2ccc(S(=O)(=O)NC4(C#N)CC4)cc2n3-c2nnc(C(F)F)s2)CCO1` [Example 21, (R)-N-(1-cyanocyclopropyl)-9-(5-(difluoromethyl)-1,3,4-thiadiazol-2-yl)-4-(2-methylmorpholino)-9H-pyrimido[4,5-b]indole-7-sulfonamide], for which the concentration for half-maximal inhibition (IC50) in assay [1] is less than 100 nM; with Kuramochi cell line it was 100 to 1000 nM.
As to `Cn1ccnc1N1CCN(c2ncnc3c2c2ccc(S(=O)(=O)NC4(C#N)CC4)cc2n3-c2nnc(C(F)F)s2)CC1` [Example 22, N-(1-Cyanocyclopropyl)-9-(5-(difluoromethyl)-1,3,4-thiadiazol-2-yl)-4-(4-(1-methyl-JH-imidazol-2-yl)piperazin-1-yl)-9H-pyrimido[4,5-b]indole-7-sulfonamide], the IC50 was less than 100 nM in assay [1] and 100 to 1000 nM in the assay on Kuramochi cell line.
As for `CC(C)C(=O)N1CC2(C1)CN(c1ncnc3c1c1ccc(S(=O)(=O)NC4(C#N)CC4)cc1n3-c1nnc(C(F)F)s1)C2` [Example 23, N-(1-Cyanocyclopropyl)-9-[5-(difluoromethyl)-1,3,4-thiadiazol-2-yl]-4-[2-(2-methylpropanoyl)-2,6-diazaspiro[3.3]heptan-6-yl]pyrimido[4,5-b]indole-7-sulfonamide], the results for the IC50 (in assay [1]; with Kuramochi cell line) were less than 100 nM and 100 to 1000 nM, respectively.
On the same counts, the results for `CC(C)C(=O)N1C2CCC1CN(c1ncnc3c1c1ccc(S(=O)(=O)NC4(C#N)CC4)cc1n3-c1nnc(C(F)F)s1)C2` [Example 24, N-(1-Cyanocyclopropyl)-9-[5-(difluoromethyl)-1,3,4-thiadiazol-2-yl]-4-[8-(2-methylpropanoyl)-3,8-diazabicyclo[3.2.1]octan-3-yl]pyrimido[4,5-b]indole-7-sulfonamide] are less than 100 nM and 100 to 1000 nM.
For the molecule `CC(C)C(=O)N1CCCN(c2ncnc3c2c2ccc(S(=O)(=O)NC4(C#N)CC4)cc2n3-c2nnc(C(F)F)s2)CC1` [Example 25, N-(1-Cyanocyclopropyl)-9-(5-(difluoromethyl)-1,3,4-thiadiazol-2-yl)-4-(4-isobutyryl-1,4-diazepan-1-yl)-9H-pyrimido[4,5-b]indole-7-sulfonamide], the IC50 in assay [1] is less than 100 nM; in the assay on Kuramochi cell line it was 100 to 1000 nM.
Consider `N#CC1(NS(=O)(=O)c2ccc3c4c(N5CCN(C(=O)C6CC6(F)F)CC5)ncnc4n(-c4nnc(C(F)F)s4)c3c2)CC1` (stereo not drawn) [Example 26, N-(1-Cyanocyclopropyl)-4-(4-(2,2-difluorocyclopropane-1-carbonyl)piperazin-1-yl)-9-(5-(difluoromethyl)-1,3,4-thiadiazol-2-yl)-9H-pyrimido[4,5-b]indole-7-sulfonamide], for which the IC50 (in assay [1]; in the assay on Kuramochi cell line) was less than 100 nM in each case.
Regarding `Cc1ccc(C(=O)N2CCN(c3ncnc4c3c3ccc(S(=O)(=O)NC5(C#N)CC5)cc3n4-c3nnc(C(F)F)s3)CC2)cn1` [Example 27, N-(1-Cyanocyclopropyl)-9-(5-(difluoromethyl)-1,3,4-thiadiazol-2-yl)-4-(4-(6-methylnicotinoyl)piperazin-1-yl)-9H-pyrimido[4,5-b]indole-7-sulfonamide], the IC50 was less than 100 nM in assay [1] and 100 to 1000 nM with Kuramochi cell line.
For the molecule `CN(C)C(=O)N1CC2CN(c3ncnc4c3c3ccc(S(=O)(=O)NC5(C#N)CC5)cc3n4-c3nnc(C(F)F)s3)CC2C1` (stereo not drawn) [Example 28, 5-(7-(N-(1-Cyanocyclopropyl)sulfamoyl)-9-(5-(difluoromethyl)-1,3,4-thiadiazol-2-yl)-9H-pyrimido[4,5-b]indol-4-yl)-N,N-dimethylhexahydropyrrolo[3,4-c]pyrrole-2(1H)-carboxamide], the IC50 in assay [1] is less than 100 nM; with Kuramochi cell line, 100 to 1000 nM.
With `C[C@@H]1CN(c2ncnc3c2c2ccc(S(=O)(=O)NC4(C#N)CC4)cc2n3-c2nnc(C(F)F)s2)C[C@H](C)N1C(=O)C1CC1` [Example 29, N-(1-Cyanocyclopropyl)-4-((3S,5R)-4-(cyclopropanecarbonyl)-3,5-dimethylpiperazin-1-yl)-9-(5-(difluoromethyl)-1,3,4-thiadiazol-2-yl)-9H-pyrimido[4,5-b]indole-7-sulfonamide], the IC50 (in assay [1]; in the assay with Kuramochi cell line) was less than 100 nM in each case.
For `N#CC1(NS(=O)(=O)c2ccc3c4c(N5CCN(C(=O)C6CCC6)CC5)ncnc4n(-c4nnc(C(F)F)s4)c3c2)CC1` [Example 30, N-(1-Cyanocyclopropyl)-4-(4-(cyclobutanecarbonyl)piperazin-1-yl)-9-(5-(difluoromethyl)-1,3,4-thiadiazol-2-yl)-9H-pyrimido[4,5-b]indole-7-sulfonamide], the IC50 in assay [1] was less than 100 nM; in the assay with Kuramochi cell line, 100 to 1000 nM.
As for `CC(C)C(=O)N1[C@H](C)CN(c2ncnc3c2c2ccc(S(=O)(=O)NC4(C#N)CC4)cc2n3-c2nnc(C(F)F)s2)C[C@H]1C` [Example 31, N-(1-Cyanocyclopropyl)-9-(5-(difluoromethyl)-1,3,4-thiadiazol-2-yl)-4-((3R,5R)-4-isobutyryl-3,5-dimethylpiperazin-1-yl)-9H-pyrimido[4,5-b]indole-7-sulfonamide], the IC50 (in assay [1]; in the assay with Kuramochi cell line) was 100 to 1000 nM in each case.
Turning to `CC(C)C(=O)N1C[C@@H](C)N(c2ncnc3c2c2ccc(S(=O)(=O)NC4(C#N)CC4)cc2n3-c2nnc(C(F)F)s2)C[C@@H]1C` [Example 33, N-(1-Cyanocyclopropyl)-9-(5-(difluoromethyl)-1,3,4-thiadiazol-2-yl)-4-((2R,5S)-4-isobutyryl-2,5-dimethylpiperazin-1-yl)-9H-pyrimido[4,5-b]indole-7-sulfonamide], the IC50 (in assay [1]; in the assay on Kuramochi cell line) was less than 100 nM in each case.
As to `N#CC1(NS(=O)(=O)c2ccc3c4c(N5CCN(C(=O)C6CCOC6)CC5)ncnc4n(-c4nnc(C(F)F)s4)c3c2)CC1` (stereo not drawn) [Example 34, N-(1-Cyanocyclopropyl)-9-(5-(difluoromethyl)-1,3,4-thiadiazol-2-yl)-4-(4-(tetrahydrofuran-3-carbonyl)piperazin-1-yl)-9H-pyrimido[4,5-b]indole-7-sulfonamide], the IC50 (in assay [1]; in the assay on Kuramochi cell line) was less than 100 nM throughout.
Consider `Cc1ccc(C(=O)N2CCN(c3ncnc4c3c3ccc(S(=O)(=O)NC5(C#N)CC5)cc3n4-c3nnc(C(F)F)s3)CC2)nc1` [Example 35, N-(1-Cyanocyclopropyl)-9-(5-(difluoromethyl)-1,3,4-thiadiazol-2-yl)-4-(4-(5-methylpicolinoyl)piperazin-1-yl)-9H-pyrimido[4,5-b]indole-7-sulfonamide], for which the concentration for half-maximal inhibition (IC50) (in assay [1]; in the assay with Kuramochi cell line) was less than 100 nM each time.
As for `CC1(C(=O)N2CC3CN(c4ncnc5c4c4ccc(S(=O)(=O)NC6(C#N)CC6)cc4n5-c4nnc(C(F)F)s4)CC3C2)CC1` (stereo not drawn) [Example 36, N-(1-Cyanocyclopropyl)-9-(5-(difluoromethyl)-1,3,4-thiadiazol-2-yl)-4-(5-(1-methylcyclopropane-1-carbonyl)hexahydropyrrolo[3,4-c]pyrrol-2(1H)-yl)-9H-pyrimido[4,5-b]indole-7-sulfonamide], the figures for the IC50 (in assay [1]; with Kuramochi cell line) were less than 100 nM and 100 to 1000 nM, respectively.

The term IC50 denotes the midpoint of a concentration-inhibition curve.
